Reference: PubChem BioAssay AID330 (DTP/NCI, 2004)
Several values for one entry are separate records, joined by “and”; a condition that tells them apart may be missing. Identical values can stand only once. Inconclusive results and toxic doses are left out.

Test system: P388 leukemia ip, CD2F1 mice, survival T/C
Test: NCI In Vivo Anticancer Drug Screen. Data for tumor model P388 Leukemia (intraperitoneal) in CD2F1 (CDF1) mice
Settings: endpoint: median survival time, higher = longer survival
How it was run: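 Mice carrying the transplanted tumor received test compound or vehicle. Survival was recorded in each group, and the value is the treated-group measurement divided by that of the vehicle-treated control group.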

[1] = dose: 100.0 mg/kg/injection, schedule: Q04DX003 (ip), vehicle: saline with Tween-80
[2] = dose: 50.0 mg/kg/injection, schedule: Q01DX005 (ip), vehicle: saline with Tween-80
[3] = dose: 100.0 mg/kg/injection, schedule: Q01DX005 (ip), vehicle: saline with Tween-80
[4] = dose: 60.0 mg/kg/injection, schedule: Q01DX005 (ip), vehicle: saline with Tween-80
[5] = dose: 120.0 mg/kg/injection, schedule: Q01DX005 (ip), vehicle: saline with Tween-80
[6] = dose: 50.0 mg/kg/injection, schedule: Q01DX005 (ip), vehicle: Klucel (hydroxypropylcellulose) (HPC)
[7] = dose: 100.0 mg/kg/injection, schedule: Q04DX003 (ip), vehicle: saline
[8] = dose: 200.0 mg/kg/injection, schedule: Q04DX003 (ip), vehicle: saline
[9] = dose: 400.0 mg/kg/injection, schedule: Q04DX003 (ip), vehicle: saline

What does the source list for CN=P1(NC)NP(=NC)(NC)NP(=NC)(NC)NP(=NC)(NC)N1.[Cl-].[Cl-].[Cl-].[Cl-].[Pt+2] (stereo not drawn)?
T/C (dose: 12.5 mg/kg/injection, schedule: Q04DX003 (ip), vehicle: saline with Tween-80): 102 % of control; T/C (dose: 25.0 mg/kg/injection, schedule: Q04DX003 (ip), vehicle: saline with Tween-80): 111 % of control; T/C (dose: 50.0 mg/kg/injection, schedule: Q04DX003 (ip), vehicle: saline with Tween-80): 120 % of control; T/C [1]: 109 % of control

CCOC(=O)/C(Cl)=N/Nc1ccccc1 was tested. Which T/C [2] did it give?
The T/C was 97 % of control.

What about the T/C [3] of the same compound?
The T/C was 111 % of control.

Cc1ccc(NC(=O)Nc2ccccc2C(N)=O)cc1 was tested. Which T/C [1] did it give?
Its T/C is 95 % of control.

What about the T/C (dose: 200.0 mg/kg/injection, schedule: Q04DX003 (ip), vehicle: saline with Tween-80) of the same compound?
The T/C was 95 % of control.

And the T/C (dose: 400.0 mg/kg/injection, schedule: Q04DX003 (ip), vehicle: saline with Tween-80)?
Its T/C is 90 % of control.

For O=c1[nH]cc(Br)c2sccc12, which T/C (dose: 25.0 mg/kg/injection, schedule: Q01DX009 (ip), vehicle: saline with Tween-80) is on record?
The T/C was 109 % of control.

And the T/C (dose: 50.0 mg/kg/injection, schedule: Q01DX009 (ip), vehicle: saline with Tween-80)?
The T/C was 109 % of control.

And the T/C (dose: 100.0 mg/kg/injection, schedule: Q01DX009 (ip), vehicle: saline with Tween-80)?
The T/C was 109 % of control.

SC1(S)CCCN(Cc2ccccc2)C1 was tested. Which T/C (dose: 25.0 mg/kg/injection, schedule: Q01DX005 (ip), vehicle: saline) did it give?
Its T/C is 105 % of control.

What about the T/C (dose: 50.0 mg/kg/injection, schedule: Q01DX005 (ip), vehicle: saline) of the same compound?
The T/C was 108 % of control.

And the T/C (dose: 100.0 mg/kg/injection, schedule: Q01DX005 (ip), vehicle: saline)?
The T/C was 103 % of control.

What about the T/C (dose: 200.0 mg/kg/injection, schedule: Q01DX005 (ip), vehicle: saline) of the same compound?
Its T/C is 105 % of control.

What does the source list for NC(COC(=O)c1ccccc1)C(=O)O (stereo not drawn)?
T/C [2]: 100 % of control; T/C [3]: 98 % of control; T/C (dose: 200.0 mg/kg/injection, schedule: Q01DX005 (ip), vehicle: saline with Tween-80): 93 % of control

CC(=O)C[n+]1ccccc1Sc1ccc(Cl)cc1 was tested. Which T/C [2] did it give?
Its T/C is 111 % of control.

What about the T/C [3] of the same compound?
Its T/C is 111 % of control.

How did the T/C (dose: 3.13 mg/kg/injection, schedule: Q01DX009 (ip), vehicle: distilled water + Tween-80) turn out when CC(CNc1nc(Nc2ccc(Cl)c(Cl)c2)nc(C(Cl)(Cl)Cl)n1)N(C)C (stereo not drawn) was run?
Its T/C is 109 % of control.

What about the T/C (dose: 3.13 mg/kg/injection, schedule: Q01DX009 (ip), vehicle: water) of the same compound?
The T/C was 90 % of control.

And the T/C (dose: 6.25 mg/kg/injection, schedule: Q01DX009 (ip), vehicle: distilled water + Tween-80)?
Its T/C is 118 % of control.

What about the T/C (dose: 6.25 mg/kg/injection, schedule: Q01DX009 (ip), vehicle: water) of the same compound?
The T/C was 99 % of control.

And the T/C (dose: 12.5 mg/kg/injection, schedule: Q01DX009 (ip), vehicle: distilled water + Tween-80)?
Its T/C is 98 % of control and 120 % of control.

What about the T/C (dose: 12.5 mg/kg/injection, schedule: Q01DX009 (ip), vehicle: water) of the same compound?
Its T/C is 99 % of control.

And the T/C (dose: 25.0 mg/kg/injection, schedule: Q01DX009 (ip), vehicle: distilled water + Tween-80)?
Its T/C is 113 % of control and 94 % of control.

And the T/C (dose: 25.0 mg/kg/injection, schedule: Q01DX009 (ip), vehicle: water)?
Its T/C is 101 % of control.

And the T/C (dose: 50.0 mg/kg/injection, schedule: Q01DX009 (ip), vehicle: distilled water + Tween-80)?
The T/C was 109 % of control and 94 % of control.

What about the T/C (dose: 50.0 mg/kg/injection, schedule: Q01DX009 (ip), vehicle: water) of the same compound?
The T/C was 101 % of control.

With Cn1c(-c2ccc3c(c2)OCO3)cc(=O)c2ccccc21 as the compound, how does the T/C (dose: 30.0 mg/kg/injection, schedule: Q01DX005 (ip), vehicle: saline with Tween-80) read?
Its T/C is 97 % of control.

And the T/C [4]?
Its T/C is 92 % of control.

And the T/C [5]?
The T/C was 92 % of control.

O=C1c2ccccc2C(=O)N1CN1C(=O)c2ccccc2S1(=O)=O was tested. Which T/C [6] did it give?
The T/C was 93 % of control.

And the T/C (dose: 100.0 mg/kg/injection, schedule: Q01DX005 (ip), vehicle: Klucel (hydroxypropylcellulose) (HPC))?
The T/C was 98 % of control.

What does the source list for COc1ccc(Cc2cc3c(cc2OC)OCO3)cc1?
T/C (dose: 2.5 mg/kg/injection, schedule: Q01DX009 (ip), vehicle: saline with Tween-80): 99 % of control; T/C (dose: 5.0 mg/kg/injection, schedule: Q01DX009 (ip), vehicle: saline with Tween-80): 99 % of control; T/C (dose: 10.0 mg/kg/injection, schedule: Q01DX009 (ip), vehicle: saline with Tween-80): 99 % of control; T/C (dose: 15.0 mg/kg/injection, schedule: Q01DX005 (ip), vehicle: saline with Tween-80): 102 % of control; T/C (dose: 31.0 mg/kg/injection, schedule: Q01DX005 (ip), vehicle: saline with Tween-80): 102 % of control; T/C (dose: 62.5 mg/kg/injection, schedule: Q01DX005 (ip), vehicle: saline with Tween-80): 109 % of control; T/C (dose: 125.0 mg/kg/injection, schedule: Q01DX005 (ip), vehicle: saline with Tween-80): 103 % of control; T/C (dose: 250.0 mg/kg/injection, schedule: Q01DX005 (ip), vehicle: saline with Tween-80): 103 % of control

With Cc1cc[n+](C)c(Cc2ccccc2)c1C as the compound, how does the T/C (dose: 12.5 mg/kg/injection, schedule: Q01DX005 (ip), vehicle: Klucel (hydroxypropylcellulose) (HPC)) read?
The T/C was 97 % of control.

What about the T/C (dose: 25.0 mg/kg/injection, schedule: Q01DX005 (ip), vehicle: Klucel (hydroxypropylcellulose) (HPC)) of the same compound?
The T/C was 100 % of control.

What about the T/C [6] of the same compound?
The T/C was 112 % of control.

With O=C1CC2(CCCc3sccc32)C(=O)N1 (stereo not drawn) as the compound, how does the T/C [4] read?
Its T/C is 101 % of control.

And the T/C [5]?
Its T/C is 94 % of control.

And the T/C (dose: 240.0 mg/kg/injection, schedule: Q01DX005 (ip), vehicle: saline with Tween-80)?
Its T/C is 92 % of control.

Which results are given for COC1=C(OC)C(=O)C(CC=C(C)C)=C(C)C1=O?
T/C (dose: 12.5 mg/kg/injection, schedule: Q01DX009 (ip), vehicle: saline + alcohol): 118 % of control; T/C (dose: 25.0 mg/kg/injection, schedule: Q01DX009 (ip), vehicle: saline + alcohol): 104 % of control and 110 % of control; T/C (dose: 50.0 mg/kg/injection, schedule: Q01DX009 (ip), vehicle: saline + alcohol): 103 % of control and 105 % of control; T/C (dose: 100.0 mg/kg/injection, schedule: Q01DX009 (ip), vehicle: saline + alcohol): 151 % of control

How did the T/C (dose: 100.0 mg/kg/injection, schedule: Q01DX001 (ip), vehicle: saline with Tween-80) turn out when C=C1OC(C2CCCCC2)=C(C(=O)OCC)C1C (stereo not drawn) was run?
Its T/C is 100 % of control.

What about the T/C (dose: 200.0 mg/kg/injection, schedule: Q01DX001 (ip), vehicle: saline with Tween-80) of the same compound?
The T/C was 94 % of control.

What about the T/C (dose: 400.0 mg/kg/injection, schedule: Q01DX001 (ip), vehicle: saline with Tween-80) of the same compound?
The T/C was 100 % of control.

How did the T/C (dose: 5.0 mg/kg/injection, schedule: Q04DX003 (ip), vehicle: water) turn out when COc1cccc2c1C(=O)c1c(O)c3c(c(O)c1C2=O)C[C@@](O)(C(C)=O)C[C@@H]3OC1CC(NC(=O)C(N)CCN)C(O)C(C)O1 (stereo partly drawn) was run?
The T/C was 96 % of control.

What about the T/C (dose: 10.0 mg/kg/injection, schedule: Q04DX003 (ip), vehicle: water) of the same compound?
Its T/C is 94 % of control.

What about the T/C (dose: 20.0 mg/kg/injection, schedule: Q04DX003 (ip), vehicle: water) of the same compound?
The T/C was 99 % of control.

And the T/C (dose: 40.0 mg/kg/injection, schedule: Q04DX003 (ip), vehicle: water)?
The T/C was 105 % of control.

And the T/C (dose: 80.0 mg/kg/injection, schedule: Q04DX003 (ip), vehicle: water)?
The T/C was 118 % of control.

What about the T/C (dose: 160.0 mg/kg/injection, schedule: Q04DX003 (ip), vehicle: distilled water + Tween-80) of the same compound?
The T/C was 106 % of control.

And the T/C (dose: 320.0 mg/kg/injection, schedule: Q04DX003 (ip), vehicle: distilled water + Tween-80)?
Its T/C is 105 % of control.

COC(=O)/C(C(C)=O)=C1\C(=O)OCC1(C)C was tested. Which T/C [7] did it give?
Its T/C is 102 % of control.

What about the T/C [8] of the same compound?
Its T/C is 105 % of control.

And the T/C [9]?
Its T/C is 100 % of control.

Which T/C (dose: 100.0 mg/kg/injection, schedule: Q01DX001 (ip), vehicle: saline sonified) does the source give for CCOC(OCC)C(C)(C)CNC here?
The T/C was 109 % of control.

And the T/C (dose: 200.0 mg/kg/injection, schedule: Q01DX001 (ip), vehicle: saline sonified)?
The T/C was 113 % of control.

How did the T/C (dose: 50.0 mg/kg/injection, schedule: Q01DX001 (ip), vehicle: sodium bicarbonate) turn out when CCOC(=O)CCCCCCNC(=O)N1c2c(nc(N)[nH]c2=O)NCC1CNc1ccc(C(=O)NC(CCC(=O)O)C(=O)O)cc1 (stereo not drawn) was run?
Its T/C is 106 % of control.

What about the T/C (dose: 100.0 mg/kg/injection, schedule: Q01DX001 (ip), vehicle: sodium bicarbonate) of the same compound?
The T/C was 100 % of control.

What about the T/C (dose: 200.0 mg/kg/injection, schedule: Q01DX001 (ip), vehicle: sodium bicarbonate) of the same compound?
The T/C was 100 % of control.

For C1CNC(SC2(SC3=NCCN3)SC3(NCCN3)S2)=N1, which T/C (dose: 50.75 mg/kg/injection, schedule: Q01DX001 (ip), vehicle: saline) is on record?
The T/C was 104 % of control.

And the T/C (dose: 101.5 mg/kg/injection, schedule: Q01DX001 (ip), vehicle: saline)?
The T/C was 99 % of control.

What about the T/C (dose: 203.0 mg/kg/injection, schedule: Q01DX001 (ip), vehicle: saline) of the same compound?
Its T/C is 101 % of control.

Cc1c(-c2ccccc2)noc1-c1ccccc1 was tested. Which T/C [7] did it give?
The T/C was 106 % of control.

What about the T/C [8] of the same compound?
The T/C was 102 % of control.

And the T/C [9]?
Its T/C is 101 % of control.
